Where two headings read alike, the source gives them in different places.
What was measured:
NTRK2 = NTRK2 (Homo sapiens (Human), UniProt Q16620); assay: NTRK2 inhibition (IC50); assay type: biochemical
NTRK1 = NTRK1 (Homo sapiens (Human), UniProt P04629); assay: NTRK1 inhibition (IC50)
NTRK3 = NTRK3 (Homo sapiens (Human), UniProt Q16288); assay: NTRK3 inhibition (IC50); details: read-out: NTRK3 IC50
Sequence of NTRK3 (Q16288 32-839): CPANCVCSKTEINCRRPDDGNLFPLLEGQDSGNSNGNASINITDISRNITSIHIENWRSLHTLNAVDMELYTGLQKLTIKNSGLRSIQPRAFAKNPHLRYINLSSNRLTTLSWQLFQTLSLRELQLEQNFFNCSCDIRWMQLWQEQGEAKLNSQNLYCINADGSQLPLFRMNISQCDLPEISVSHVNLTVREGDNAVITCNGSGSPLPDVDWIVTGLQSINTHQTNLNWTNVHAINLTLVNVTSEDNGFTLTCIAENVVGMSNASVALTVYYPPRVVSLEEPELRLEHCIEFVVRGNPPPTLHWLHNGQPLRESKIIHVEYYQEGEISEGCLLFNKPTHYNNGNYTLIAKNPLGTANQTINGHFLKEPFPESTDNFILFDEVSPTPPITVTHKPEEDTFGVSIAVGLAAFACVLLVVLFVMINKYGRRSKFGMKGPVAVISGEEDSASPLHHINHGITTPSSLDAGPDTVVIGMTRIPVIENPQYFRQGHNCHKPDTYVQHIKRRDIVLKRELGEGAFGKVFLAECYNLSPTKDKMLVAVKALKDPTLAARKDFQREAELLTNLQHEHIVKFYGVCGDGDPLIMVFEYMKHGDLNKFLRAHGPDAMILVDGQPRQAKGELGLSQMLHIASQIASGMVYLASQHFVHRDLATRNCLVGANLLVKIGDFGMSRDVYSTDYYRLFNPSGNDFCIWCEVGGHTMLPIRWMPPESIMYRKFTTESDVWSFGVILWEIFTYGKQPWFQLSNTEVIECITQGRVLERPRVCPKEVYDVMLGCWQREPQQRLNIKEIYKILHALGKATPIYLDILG

Sequence of NTRK2 (Q16620 32-822): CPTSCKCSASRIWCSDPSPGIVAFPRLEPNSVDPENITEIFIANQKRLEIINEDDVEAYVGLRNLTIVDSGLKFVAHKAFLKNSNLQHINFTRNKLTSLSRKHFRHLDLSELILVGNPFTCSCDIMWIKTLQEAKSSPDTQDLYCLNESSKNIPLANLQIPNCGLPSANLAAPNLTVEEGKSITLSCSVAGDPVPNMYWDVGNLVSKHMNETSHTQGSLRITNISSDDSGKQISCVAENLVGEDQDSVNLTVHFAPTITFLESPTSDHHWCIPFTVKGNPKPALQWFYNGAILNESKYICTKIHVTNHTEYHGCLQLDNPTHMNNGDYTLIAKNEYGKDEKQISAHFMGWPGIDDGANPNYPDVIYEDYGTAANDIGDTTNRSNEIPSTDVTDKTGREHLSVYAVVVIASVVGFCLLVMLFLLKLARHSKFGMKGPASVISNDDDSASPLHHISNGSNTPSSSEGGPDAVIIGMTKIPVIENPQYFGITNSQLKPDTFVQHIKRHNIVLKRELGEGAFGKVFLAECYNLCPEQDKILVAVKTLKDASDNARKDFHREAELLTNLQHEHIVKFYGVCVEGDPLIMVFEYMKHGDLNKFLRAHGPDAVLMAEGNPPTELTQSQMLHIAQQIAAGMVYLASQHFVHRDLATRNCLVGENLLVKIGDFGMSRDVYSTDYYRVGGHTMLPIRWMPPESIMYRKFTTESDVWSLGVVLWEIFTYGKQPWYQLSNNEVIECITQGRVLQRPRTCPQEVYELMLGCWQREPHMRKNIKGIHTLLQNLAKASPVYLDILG
Sequence of NTRK1 (P04629 33-796): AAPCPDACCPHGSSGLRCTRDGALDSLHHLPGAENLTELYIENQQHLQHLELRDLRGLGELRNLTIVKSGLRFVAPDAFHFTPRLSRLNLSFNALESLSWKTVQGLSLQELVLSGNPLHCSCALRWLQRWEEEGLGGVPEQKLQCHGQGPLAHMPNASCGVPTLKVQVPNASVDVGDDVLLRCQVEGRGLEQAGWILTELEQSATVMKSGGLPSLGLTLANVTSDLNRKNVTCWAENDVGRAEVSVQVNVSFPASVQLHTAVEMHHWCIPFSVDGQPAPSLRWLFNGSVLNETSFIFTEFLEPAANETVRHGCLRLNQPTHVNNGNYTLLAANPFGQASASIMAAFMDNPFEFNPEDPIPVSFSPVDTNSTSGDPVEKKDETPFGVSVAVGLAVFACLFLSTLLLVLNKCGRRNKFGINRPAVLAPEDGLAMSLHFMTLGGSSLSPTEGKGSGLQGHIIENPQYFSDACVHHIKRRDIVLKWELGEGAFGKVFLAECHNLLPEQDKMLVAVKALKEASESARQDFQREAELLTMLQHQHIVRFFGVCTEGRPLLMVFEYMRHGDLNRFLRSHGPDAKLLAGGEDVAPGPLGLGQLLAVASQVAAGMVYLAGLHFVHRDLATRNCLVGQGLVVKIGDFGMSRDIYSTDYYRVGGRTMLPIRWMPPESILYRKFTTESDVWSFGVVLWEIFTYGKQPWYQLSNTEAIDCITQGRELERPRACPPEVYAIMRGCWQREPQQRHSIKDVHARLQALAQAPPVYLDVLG

Row | Compound | IC50 (NTRK2) [nM] | IC50 (NTRK1; read-out: NTRK1 IC50) [nM] | IC50 (NTRK3) [nM] | IC50 (NTRK1) [nM]
1 | O=C(Nc1ccc(OC(F)(F)F)cc1)N(Cc1ccn2nccc2c1)c1ccccc1 [CDD-2296, 1-phenyl-1-(pyrazolo[1,5-a]pyridin-5-ylmethyl)-3-(4-(trifluoromethoxy)phenyl)urea] | 335 | – | – | –
2 | O=C(Nc1ccc([N+](=O)[O-])cc1)N(Cc1ccn2nccc2c1)C1CCC1 [CDD-2297, 1-cyclobutyl-3-(4-nitrophenyl)-1-(pyrazolo[1,5-a]pyridin-5-ylmethyl)urea] | > 10000 | – | – | –
3 | O=C(Nc1ccc(OC(F)(F)F)cc1)N(Cc1ccn2nccc2c1)C1CCCCC1 [CDD-2298, 1-cyclohexyl-1-(pyrazolo[1,5-a]pyridin-5-ylmethyl)-3-(4-(trifluoromethoxy)phenyl)urea] | 99 | – | – | –
4 | O=C(Nc1ccccc1OC(F)(F)F)N(Cc1ccn2nccc2c1)C1CCC1 [CDD-2300, 1-cyclobutyl-1-(pyrazolo[1,5-a]pyridin-5-ylmethyl)-3-(2-(trifluoromethoxy)phenyl)urea] | > 10000 | – | – | –
5 | O=C(Nc1ccc(OC(F)(F)F)cc1)N(Cc1ccn2nccc2c1)C1CCCCCC1 [CDD-2301, 1-cycloheptyl-1-(pyrazolo[1,5-a]pyridin-5-ylmethyl)-3-(4-(trifluoromethoxy)phenyl)urea] | 513 | – | – | –
6 | CC(C)N(Cc1ccn2ncc(Br)c2c1)C(=O)Nc1ccc(OC(F)(F)F)cc1 [CDD-2735, 1-((3-bromopyrazolo[1,5-a]pyridin-5-yl)methyl)-1-isopropyl-3-(4-(trifluoromethoxy)phenyl)urea] | 3.6 | 4.3 | 4.4 | –
7 | O=C(O)c1cnn2ccc(CN(C(=O)Nc3ccc(OC(F)(F)F)cc3)C3CC3)cc12 [CDD-2736, 5-((1-cyclopropyl-3-(4-(trifluoromethoxy)phenyl)ureido)methyl)pyrazolo[1,5-a]pyridine-3-carboxylic acid] | 2.5 | 4.1 | 3.3 | –
8 | CC(C)CN(Cc1ccn2ncc(C(=O)O)c2c1)C(=O)Nc1ccc(OC(F)(F)F)cc1 [CDD-2742, 5-((1-isobutyl-3-(4-(trifluoromethoxy)phenyl)ureido)methyl)pyrazolo[1,5-a]pyridine-3-carboxylic acid] | 5.7 | 104 | 11.8 | –
9 | CCC(C)N(Cc1ccn2ncc(C(=O)O)c2c1)C(=O)Nc1ccc(OC(F)(F)F)cc1 (stereo not shown) [CDD-2743, 5-((1-(sec-butyl)-3-(4-(trifluoromethoxy)phenyl)ureido)methyl)pyrazolo[1,5-a]pyridine-3-carboxylic acid] | 6 | 9.5 | 5.4 | –
10 | CC[C@@H](C)N(Cc1ccn2ncc(C(N)=O)c2c1)C(=O)Nc1ccc(OC(F)(F)F)cc1 [CDD-3057, (R)-5-((1-(sec-butyl)-3-(4-(trifluoromethoxy)phenyl)ureido)methyl)pyrazolo[1,5-a]pyridine-3-carboxamide] | 4 | 17.6 | 6.6 | –
11 | CC[C@H](C)N(Cc1ccn2ncc(C(N)=O)c2c1)C(=O)Nc1ccc(OC(F)(F)F)cc1 [CDD-3058, (S)-5-((1-(sec-butyl)-3-(4-(trifluoromethoxy)phenyl)ureido)methyl)pyrazolo[1,5-a]pyridine-3-carboxamide] | 3.7 | 11.7 | 8.4 | –
12 | CN(C)C(=O)[C@H](Cc1cccc([N+](=O)[O-])c1)NC(=O)Nc1c(Cl)cccc1C(F)(F)F [CDD-3099, (S)-2-(3-(2-chloro-6-(trifluoromethyl)phenyl)ureido)-N,N-dimethyl-3-(3-nitrophenyl)propanamide] | 47400 | – | – | 39600
13 | CNC(=O)[C@@H](Cc1ccc([N+](=O)[O-])cc1)NC(=O)Nc1ccc(Oc2ccccc2)cc1 [CDD-3100, (R)-N-methyl-3-(4-nitrophenyl)-2-(3-(4-phenoxyphenyl)ureido)propanamide] | 37200 | 26300 | – | –
14 | CC(C)c1ccc(OCC(=O)N(C)Cc2ccn3ncc(C(N)=O)c3c2)cc1 [CDD-3120, 5-((2-(4-isopropylphenoxy)-N-methylacetamido)methyl)pyrazolo[1,5-a]pyridine-3-carboxamide] | 242 | 1780 | – | –
15 | CN(Cc1ccn2ncc(C(N)=O)c2c1)C(=O)CCc1ccc(OC(F)(F)F)cc1 [CDD-3121, 5-((N-methyl-3-(4-(trifluoromethoxy)phenyl)propanamido)methyl)pyrazolo[1,5-a]pyridine-3-carboxamide] | 3240 | 11600 | – | –
16 | CC(C)c1ccc(OCC(=O)NCc2ccn3ncc(C(N)=O)c3c2)cc1 [CDD-3129, 5-((2-(4-isopropylphenoxy)acetamido)methyl)pyrazolo[1,5-a]pyridine-3-carboxamide] | 3760 | 9540 | – | –
17 | NC(=O)c1cnn2ccc(CNC(=O)Nc3ccc(OC(F)(F)F)cc3)cc12 [CDD-3130, 5-((3-(4-(trifluoromethoxy)phenyl)ureido)methyl)pyrazolo[1,5-a]pyridine-3-carboxamide] | 1260 | 9200 | – | –
18 | CN(Cc1ccn2ncc(C(N)=O)c2c1)C(=O)COc1ccc(C(F)(F)F)cc1 [CDD-3181, 5-((N-methyl-2-(4-(trifluoromethyl)phenoxy)acetamido)methyl)pyrazolo[1,5-a]pyridine-3-carboxamide] | 1060 | 6720 | – | –
19 | CN(Cc1ccn2ncc(C(N)=O)c2c1)C(=O)COc1cccc(OC(F)(F)F)c1 [CDD-3182, 5-((N-methyl-2-(3-(trifluoromethoxy)phenoxy)acetamido)methyl)pyrazolo[1,5-a]pyridine-3-carboxamide] | 354 | 4060 | – | –
20 | CN(Cc1ccn2ncc(C(N)=O)c2c1)C(=O)COc1ccc(C(C)(C)C)cc1 [CDD-3183, 5-((2-(4-(tert-butyl)phenoxy)-N-methylacetamido)methyl)pyrazolo[1,5-a]pyridine-3-carboxamide] | 247 | 3610 | – | –
21 | CN(Cc1ccn2ncc(C(N)=O)c2c1)C(=O)CN(C)c1ccc(C(C)(C)C)cc1 [CDD-3185, 5-((2-((4-(tert-butyl)phenyl)(methyl)amino)-N-methylacetamido)methyl)pyrazolo[1,5-a]pyridine-3-carboxamide] | 1750 | 10900 | – | –
22 | CC(C)N(Cc1ccc2[nH]ccc2c1)C(=O)COc1ccc(OC(F)(F)F)cc1 [CDD-3264, N-((1H-indol-5-yl)methyl)-N-isopropyl-2-(4-(trifluoromethoxy)phenoxy)acetamide] | 2090 | 43900 | 21800 | –
23 | CC(C)N(Cc1ccc2[nH]ccc2c1)C(=O)Nc1ccc(OC(F)(F)F)cc1 [CDD-3265, 1-((1H-indol-5-yl)methyl)-1-isopropyl-3-(4-(trifluoromethoxy)phenyl)urea] | 53700 | 50100 | 55100 | –
24 | CC(C)N(Cc1ccn2nccc2c1)C(=O)CNc1ccc(C(C)(C)C)nc1 [CDD-3306, 2-((6-(tert-butyl)pyridin-3-yl)amino)-N-isopropyl-N-(pyrazolo[1,5-a]pyridin-5-ylmethyl)acetamide] | 1130 | 2410 | 4770 | –
25 | CC(C)N(Cc1ccn2nccc2c1)C(=O)CNc1ccc(C2(C(F)(F)F)CC2)cc1 [CDD-3307, N-isopropyl-N-(pyrazolo[1,5-a]pyridin-5-ylmethyl)-2-((4-(1-(trifluoromethyl)cyclopropyl)phenyl)amino)acetamide] | 414 | 2170 | 922 | –
